B1: ibj1c.pk0002.f9 (protein)
chain: MKFLYGIILIALFLTVMIATHSEARCPNCFTTNPNAEADCKKCCGNRWGKCAGYQCVCPMK

Tests used:
[1] = tested on: Heliothis virescens larvae; assay: Feeding bioassay of recombinant baculoviruses expressing the scorpion peptides on Heliothis virescens larvae; type: in vivo; conditions: four 5-day-old larvae fed 200 mg viral-contaminated diet; symptoms examined 4, 5, 6 and 7 days after fresh diet added
Excerpt: It has been shown that single amino acids residues are important for receptor binding and for biological activity of K-channel toxins (Sabatier et al. (1994) Int. J. Peptide Protein Res. 43:486-495). The cDNAs described herein were cloned into baculoviruses and used to test their activity against Lepidopteran.
The DNA encoding the peptides was amplified by performing PCR and adding a Bgl II restriction site at the 5′ end and an Eco RI site at the 3′ end to allow cloning into the baculovirus transfer vector pAcUW21 (BD Biosciences-PharMingen, San Diego, Calif.). After amplification in E. coli the presence of the appropriate fragments was confirmed by restriction enzyme analysis. Colonies containing the appropriate fragments were isolated, propagated, and plasmid DNA was prepared for lipofectin-mediated co-transfection into insect cells with linearized polyhedrin-negative AcNPV. Co-transfections were performed essentially as described in Example 7. Polyhedrin-positive recombinant viruses were isolated employing standard plaque purification protocols and were mixed with a plug of HV diet (www.Bio-Serv.com) and fed to Heliothis virescens larvae.
Depicted in Table 3 are the results from two independent experiments in which four 5-day-old larvae were fed 200 mg of viral-contaminated diet. The larvae were allowed to eat for 2 days or until the viral-contaminated diet was consumed, then fresh 1 g diet plugs were added to allow continued feeding.

[2] = tested on: Ca+2-activated K-channels and voltage-dependent K-channel (K(v) 1.3); conditions: Maxi-K, medium- and small-conductance Ca+2-activated K-channels and K(v) 1.3; cited from earlier work

Row | Molecule | Activity of Scorpion Potassium Channel Modifiers on Heliothis virescens Larvae, Experiment 1 [1] | Activity of Scorpion Potassium Channel Modifiers on Heliothis virescens Larvae, Experiment 2 [1] | Potency of channel inhibition [2]
1 | ibj1c.pk005.e21: Buthotus judaicus scorpion leiuropeptide III homolog; mature toxin amino acids 31-59 of SEQ ID NO:10, expressed from recombinant baculovirus (VGCEDCPEHCSQQNARAKCENDKCVCEPK) | Slightly Active | Active (scored as active if the larvae became irritated and had contractions and died) | –
2 | ibj1c.pk007.c13: Buthotus judaicus scorpion leiurotoxin I homolog; mature toxin amino acids 38-70 of SEQ ID NO:12, expressed from recombinant baculovirus (AFCNLRRCQLICRESGLLGKCIGDRCECVPHGK) | Slightly Active | Slightly Active | –
3 | ibj1c.pk005.n9: Buthotus judaicus scorpion potassium channel blocking toxin 15-1 homolog; mature toxin amino acids 23-58 of SEQ ID NO:18, expressed from recombinant baculovirus (DLIDVKCISSQECWIACKKVTGRFQGKCQNKQCRCY) | Slightly Active | Slightly Active | –
4 | ibj1c.pk007.k8: Buthotus judaicus scorpion cobatoxin 1 homolog; mature toxin amino acids 22-58 of SEQ ID NO:2, expressed from recombinant baculovirus (NFKVEAAQCYSSDCRVKCAAMGFNSGKCINSKCKCYK) | Slightly Active | Slightly Active | –
5 | ibj1c.pk009.i6: Buthotus judaicus scorpion kaliotoxin 2 precursor homolog; mature toxin amino acids 23-59 of SEQ ID NO:6, expressed from recombinant baculovirus (QVETNVKCTGGSCASTCKRVIGVAAGKCINGRCVCYP) | Slightly Active | Slightly Active | –
6 | ibj1c.pk006.i20: Buthotus judaicus scorpion kaliotoxin 2 precursor homolog; mature toxin amino acids 23-61 of SEQ ID NO:4, expressed from recombinant baculovirus (QYELDVTCMGGADNCVKPCYDKYGTTKTKCINDRCNCYP) | Slightly Active | Slightly Active | –
7 | ibj1c.pk006.h8: Buthotus judaicus scorpion potassium channel blocking toxin 15-1 homolog; mature toxin amino acids 23-58 of SEQ ID NO:16, expressed from recombinant baculovirus (GLIDVRCSASRECWEACRKVTGSGQGKCQNNQCRCY) | Slightly Active | Active (scored as active if the larvae became irritated and had contractions and died) | –
8 | charybdotoxin [ChTX] | – | – | in the low nanomolar range
9 | ibj1c.pk008.d3: Buthotus judaicus scorpion leiuropeptide I homolog; mature toxin amino acids 29-56 of SEQ ID NO:8, expressed from recombinant baculovirus (VDCEECPFHCAGKNAIPTCDDGECNCNV) | Slightly Active | Slightly Active | –
10 | B1 | Slightly Active | Slightly Active | –

Reference: patent US6740743B2, “Scorpian toxins” (E. I. du Pont de Nemours and Company, priority 1999, dated 2004)
